Measured values from PubChem BioAssay AID2423 (Broad Institute, 2010).
Inconclusive results are not listed. Active and inactive are the calls of the source. How the calls were made is not given here.

System: C. albicans CaCi-8 + fluconazole, Alamar Blue growth, 48 h
Test: resistant C. albicans growth inhibition with fluconazole, dose response, CaCi-8 strain, Alamar Blue fluorescence (AID 2423)

Row | SMILES | EC50
1 | COc1ccc(CCn2c(C)cc3c(c2=O)C(c2ccc4c(c2)OCO4)C(C#N)=C(N)O3)cc1OC (configuration not stated) | > 16000 nM (inactive)
2 | NC(=S)NNc1cccc(Cl)c1 | > 16000 nM (inactive)
3 | COc1ccc(OC)c(/C=C2\SC(=S)N(NS(=O)(=O)c3ccc(C)cc3)C2=O)c1 | 1130 nM
4 | CC(=O)Nc1ccc(N2CCCCC2)c(C(=O)Nc2cccc(C)c2)c1 | > 16000 nM (inactive)
5 | COc1ccc(C(=O)Oc2c(CN3CCOCC3)cc(Cl)c3cccnc23)cc1 | 9170 nM
6 | CC(C)(C)C(=O)NC(=S)NNC(=O)c1ccc(-c2ccccc2)cc1 | < 120 nM
7 | COc1cccc(N=Nc2ccc(O)c3ncccc23)c1 | 505 nM
8 | CCc1ccc(/C=C/C(=O)c2cc(Br)ccc(=O)c2O)cc1 | 833 nM
9 | CCc1nnc(NC(=O)Cn2ccc(C(F)(F)F)n2)s1 | > 15000 nM (inactive)
10 | COc1cccc(C(=O)NNC(=O)c2ccccc2Br)c1 | > 15000 nM (inactive)
11 | CC(C)CC(=O)NC(c1cccs1)c1ccc2cccnc2c1O (configuration not stated) | 867 nM
12 | CN(C)c1ccc(/C=C/C=C/c2sc3ccccc3[n+]2C)cc1 | 1740 nM
13 | Nc1nc(N)c2cc(Sc3ccc4ccccc4c3)ccc2n1 | 1180 nM
14 | CC(OC(=O)c1oc2ccccc2c1COc1ccccc1)C(N)=O (configuration not stated) | > 16000 nM (inactive)
15 | Cc1ccc(-n2nc(C)c3c(C)cc(=O)[nH]c32)cc1 | 2080 nM
16 | CC1(C)C(O)=C(c2nc3ccccc3[nH]2)C(=N)N1c1ccccc1 | 9820 nM
17 | O=C(N/N=C/c1cc2c3c(c1O)CCCN3CCC2)c1ccccc1O | 895 nM
18 | Cc1ccc(C(=O)N/N=C/c2c(O)ccc3ccccc23)cn1 | 947 nM
19 | Oc1ccccc1/C=N/Nc1nccnc1Cl | 1280 nM
20 | O=C(C[n+]1ccccc1)N/N=C/c1cccs1 | > 15000 nM (inactive)
21 | NC1=NC[C@H](Cc2ccccc2)N1CCCCC1CCCCC1 | 7380 nM
22 | N/C(Cc1ccc(Cl)cc1Cl)=N\OC(=O)c1ccccc1 | 833 nM
